“Also recorded” adds a separate entry of the source. Like-named read-outs stand apart in the source and are kept apart here.

One data set deals with SiHa. In words: MTT antiproliferative assay. Type of data set: cell-based, human. The settings on record: SiHa, 72 h; for inhibition at 10 µM / inhibition at 30 µM: Homo sapiens. Here is the method: (§1) The antiproliferative properties of the tested compounds were additionally determined using the MTT assay against a panel of human adherent cancer cell lines isolated from breast (MCF-7 and MDA-MB-231), cervical (HeLa and SiHa), and ovarian (A2780) tumors and also on the NIH/3T3 fibroblast cell line (Table 3). IC50 values were calculated from a wider concentration range (0.1–30 μM) when higher than 50% cell growth inhibition was obtained at 10 μM (Table 4). Cisplatin was used as a reference compound. […] The noncancerous fibroblast cell line NIH/3T3 was used to gather preliminary data regarding the cancer selectivity of vindolin derivatives. […] The tumor selectivity of compound 9g, expressed as the ratio of IC50 on cancer cells and fibroblasts, is substantially higher than that of cisplatin (Table 4).
(§2) The antiproliferative effects of the prepared derivatives were evaluated in vitro using the MTT assay against a panel of human adherent cancer cell lines, including breast (MDA-MB-231, MCF-7), cervical (SiHa, HeLa), and ovarian (A2780) cancer cells. The noncancerous fibroblast cell line NIH/3T3 was included to obtain data concerning the tumor selectivity of the test substances. All cell lines were sourced from the European Collection of Cell Cultures (Salisbury, UK), except for SiHa (American Tissue Culture Collection (Manassas, VA, USA). All cell lines were maintained in Eagle’s Minimal Essential Medium (EMEM) supplemented with 10% fetal bovine serum (FBS), 1% non-essential amino acids, and a mixture of penicillin, streptomycin, and amphotericin B. The cells were maintained in a humidified atmosphere containing 5% CO2 at 37 °C. The media and the cell culture supplements were procured from Capricorn Scientific Ltd. (Ebsdorfergrund, Germany). Cells were seeded into 96-well microplates at 5000/well and, the next day, treated with vindoline derivatives at two concentrations (10 or 30 μM) for 72 h under cell culturing conditions. […] When higher than 50% cell growth inhibition was observed, the assay was repeated using a wide concentration range (0.1–30 μM). The IC50 values were calculated using GraphPad Prism software 10.3.1 (GraphPad Software, San Diego, CA, USA). Two independent experiments were performed with at least five replicates per condition.

Data set [1] deals with 60 human tumor cell lines (NCI60). Also noted: method as in PMID 39063170. The following applies: previous work; cited from earlier work.
The subject of another data set is MDA-MB-231. The data set is described as follows: MTT antiproliferative assay. Type of data set: cell-based, human. The following applies: Homo sapiens, 72 h, 72 h; for inhibition at 10 µM: MDA-MB-231, 10 μM; for inhibition at 30 µM: MDA-MB-231, 30 μM. As for the experimental part: as §1, §2
For orientation: Formazan colour is commonly taken as a measure of viable cells.

Another data set concerns HeLa. The data set is described as follows: MTT antiproliferative assay. Type of data set: cell-based, human. The settings on record: Homo sapiens, HeLa, 72 h; for inhibition at 10 µM: read-out: Growth Inhibition (%) ± SEM; for inhibition at 30 µM: read-out: Growth Inhibition (%) ± SEM (converted). As for the experimental part: as §1, §2
For the next data set, the system named is A2780. In words: MTT antiproliferative assay. Type of data set: cell-based, human. The settings on record: Homo sapiens, 72 h, 72 h; for inhibition at 10 µM: A2780, 10 μM; for inhibition at 30 µM: A2780, 30 μM, read-out: Growth Inhibition (%) ± SEM (converted). Here is the method:
as §1, §2

For another data set, the system named is MCF-7. In words: MTT antiproliferative assay. Type of data set: cell-based, human. The settings on record: Homo sapiens, MCF7, 72 h; for inhibition at 30 µM: MCF-7, 30 μM, read-out: Growth Inhibition (%) ± SEM (converted). Here is the method: as §1, §2
For a further data set, the system named is NIH/3T3 (fibroblast). In words: MTT antiproliferative assay. Type of data set: cell-based. The settings on record: Mus musculus, 72 h; for inhibition at 10 µM: NIH3T3, 10 μM, read-out: Growth Inhibition (%) ± SEM; for inhibition at 30 µM: NIH3T3, 30 μM, read-out: Growth Inhibition (%) ± SEM (converted). Here is the method:
as §1, §2

The test system of data set [2] is panel of human adherent cancer cell lines. The data set is described as follows: MTT antiproliferative assay, whole cancer panel. The following applies: for anticancer activity / cytotoxic effect (in words): MTT panel. Type of data set: cell-based. Here is the method:
as §1, §2

The mark [3] stands for this setting: heading: Growth Inhibition ± SEM.
[4] abbreviates: read-out: Growth Inhibition (%) ± SEM.
Setting [5] is: read-out: Growth Inhibition (%) ± SEM (converted).

The term IC50 denotes the concentration that gives 50% inhibition. For `N.N.[Cl][Pt][Cl]` [Cisplatin, reference compound], the IC50 in the data set with SiHa (MTT, read-out: IC50 Value (μM) ± SEM) was 15.5 ± 0.93 µM.

Turning to `CCC12C=CCN3CCC4(c5ccc(OC)cc5N(C)C4C(O)(C(=O)OC)C1O)C32` (centres unmarked) [compound 6, 17-desacetylvindoline], the “antiproliferative effects (in words)” value in data set [1] was “do not exert antiproliferative effects”.

As a reminder, the inhibition is how much of the control response was suppressed. On to `CC[C@]12C=CCN3CC[C@@]4(c5ccc(OC)cc5N(C)[C@H]4[C@@](O)(C(=O)OC)[C@@H]1OC(=O)CC(c1ccccc1)(c1ccccc1)c1ccccc1)[C@@H]32` [compound 13, 17-(O-3,3,3-Triphenylpropanoyl)vindoline], for which the inhibition at 10 µM with SiHa (setting [3]) was below 10%; in the data set on MDA-MB-231 (setting [3]), below 10%; in the data set on HeLa it was 39.9 ± 2.57%; with A2780 (setting [3]), below 10%; in the data set with NIH/3T3 (fibroblast) it was 26.1 ± 1.55%. In addition, the inhibition at 30 µM with SiHa (setting [3]) is below 10%; in the data set with MDA-MB-231 (setting [3]), below 10%; with HeLa, 40.1%; in the data set on A2780, 11.9%; in the data set with MCF-7, 20.8%; in the data set on NIH/3T3 (fibroblast), 22.1%. Also, the “anticancer activity / cytotoxic effect (in words)” value in data set [2] is reported as “no cytotoxic effect”. The “antiproliferative effect (in words)” value in data set [2] (even at 30 μM) is recorded as “modest or negligible effect”.

As to `CCC12C=CCN3CCC4(c5ccc(OC)cc5N(C)C4C(O)(C(=O)OC)C1OC(=O)CCCBr)C32` (centres unmarked) [compound 7, 17-(O-4-bromobutanoyl)vindoline], in data set [1], the “antiproliferative effects (in words)” value is “do not exert antiproliferative effects”.

As for `CC[C@]12C=CCN3CC[C@@]4(c5cc(NC(=O)C[P+](c6ccccc6)(c6ccccc6)c6ccccc6)c(OC)cc5N(C)[C@H]4[C@@](O)(C(=O)OC)[C@@H]1OC(C)=O)[C@@H]32` [compound 16], the inhibition at 10 µM in the data set with SiHa (setting [4]) was 15 ± 0.34%; with MDA-MB-231 (setting [4]) it was 12.64 ± 0.03%; in the data set on HeLa, 21.7 ± 0.84%; with A2780 (setting [4]), 19.4 ± 0.64%; with MCF-7 (MCF-7, 10 μM, read-out: Growth Inhibition (%) ± SEM), 31.1 ± 3.1%; in the data set with NIH/3T3 (fibroblast), 24.9 ± 0.78%. The inhibition at 30 µM was 36.8% in the data set with SiHa (setting [5]); 13.5% with MDA-MB-231 (setting [5]); 30% with HeLa; 29.5% in the data set on A2780; 47.1% in the data set on MCF-7; 27.5% with NIH/3T3 (fibroblast). Besides, the “anticancer activity / cytotoxic effect (in words)” value in data set [2] was “no cytotoxic effect; also recorded: no remarkable anticancer activity”.
